Source: publication PMC10693528, “A high-throughput metabolomics in vitro platform for the characterization of hepatotoxicity” (Cell Biology and Toxicology, 2023)
Marks after values point to notes of the source that are not given here. Values belong to the compound of their own block, whether it stands above or below them.

System: HepG2 cells
Experiment: Range finder cell viability (CellTiter-Glo, ATP) dose response
Assay type: cell-based, human
Details: estimated from ATP dose response curve, 48 h, rounded; for EC50: Homo sapiens, HepG2
Description: HepG2 cells (ECACC, UK, maximum passage number 9) were maintained and grown on Dulbecco’s MEM media supplemented with 1% v/v of penicillin/streptomycin, L-glutamine (200 mM, 1% v/v), non-essential amino acids (100x, 1% v/v), and 10% FBS (PAN-Biotech, Aidenbach, Germany) in 75 cm^2 culture flasks (TPP, Switzerland). For cell passaging (~ 80% confluency) media was removed and cells were washed twice with pre-warmed calcium and magnesium free Dulbecco’s PBS (PAN-Biotech, Aidenbach, Germany). Trypsin was used for cell detachment. Then, 20 mL culture medium was added, and single-cell suspensions were obtained by passing the suspension through a Combitip (Eppendorf, Germany). A fraction of the cell suspension was then transferred to a new culture vessel. For experiments, 15,000 cells per well (passage 5-9) were seeded in 96-well flat-bottom plates (TPP, Switzerland) and incubated for 24 h for cell attachment (37 °C and 5% CO^2). Afterwards, culture media were exchanged, test substances applied, and plates incubated for 48 h (37 °C and 5% CO^2).
In order to define appropriate dose levels, range finder experiments were performed prior to metabolome experiments. Substances were administered to HepG2 cells in increasing concentrations and incubated for 48 h (6 replicates per concentration). Viability and cytotoxicity tests were performed as described previously. Luminescence values resulting from CellTiter-Glo® assays were used to build dose response curves. Curve fitting and effective concentrations (ECs) values were calculated in R using three-parameter Weibull model (W1.3). To obtain a full metabolome-based dose-response effect, five concentrations (EC1, EC5, EC15, EC50, EC85) were selected for metabolome experiments (Table 2). […] Calculated ECs values were rounded to the nearest integer number for dose selection.

EC50: 500 µM
Structure (SMILES): Cc1cccc(Nc2cc(Cl)nc(SCC(=O)O)n2)c1C [Wy-14643]
EC1: 25 µM
EC5: 50 µM
EC15: 150 µM
EC85: 1000 µM

EC50: 10 µM
Structure (SMILES): CC(=O)N1CCN(c2ccc(OCC3COC(Cn4ccnc4)(c4ccc(Cl)cc4Cl)O3)cc2)CC1 (stereo not shown) [Ketoconazole]
EC1: 5^b μM
EC5: 0.2 µM
EC15: 1 µM
EC85: 50 µM

EC50: 100 µM
Structure (SMILES): O=c1cc(-c2ccccc2)oc2ccc3ccccc3c12 [β-naphthoflavone]
EC1: 0.1 µM
EC5: 1 µM
EC15: 10 µM
EC85: 700 µM

More lines, now with the values behind:

Structure (SMILES): O=C(O)c1cc(Oc2ccc(C(F)(F)F)cc2Cl)ccc1[N+](=O)[O-] [Acifluorfen]
EC50: 500 µM
EC1: 50 µM
EC5: 100 µM
EC15: 200 µM
EC85: 800 µM

Structure (SMILES): CCC(CC)Nc1c([N+](=O)[O-])cc(C)c(C)c1[N+](=O)[O-] [Pendimethalin]
EC50: 94 µM
EC1: 24 µM
EC5: 39 µM
EC15: 56 µM
EC85: 157 µM
